Laboratory results as given in US20160263005A1, “TOPICAL COMPOSITIONS AND METHODS FOR SKIN LIGHTENING” (AVON PRODUCTS, INC., priority 2014, published 2016).

System: Human epidermal melanocytes from dark-pigmented skin
Assay: Melanin content in human epidermal melanocytes after 8 days of incubation (absorbance at 405 nm)
Assay type: cell-based
Conditions: for % Pigmentation (percent change of melanin absorbance relative to vehicle control): 8 days of incubation; for Effect on pigmentation, in words: at the concentrations of Table 1
Procedure: The Compound of Formula (II) was examined for its ability to reduce pigmentation in vitro in human melanocytes. Human epidermal melanocytes from dark-pigmented skin were seeded in 6-well dishes and grown using commercially available Medium 254, a sterile, liquid medium prepared with 200 μM calcium chloride for the culture of human epidermal melanocytes, supplemented with 1% Penicillin/Streptomycin and 1% Human Melanocyte Growth Supplement. Corresponding controls were maintained without histamine, Diphenylhydramine HCl and Compound II. Four replicates were tested for each combination. After 8 days of incubation, melanin was collected and processed by washing the wells with 1× phosphate-buffered saline (PBS), followed by addition of 200 μL of 2M NaOH to three of the four replicates, which are then scraped, pooled and boiled at 80° C. for an hour. Melanin absorption was then measured at 405 nm using a spectrophotometer.
A larger (positive or negative) percent change indicates a larger increase or reduction in melanin.

Row | SMILES | % Pigmentation (percent change of melanin absorbance relative to vehicle control) (5 μM) | Effect on pigmentation, in words | % Pigmentation (percent change of melanin absorbance relative to vehicle control) (0.0001%) | % Pigmentation (percent change of melanin absorbance relative to vehicle control) (0.001%)
1 | NCCc1c[nH]cn1 [Histamine, reference compound] | 58.75% | significant increase in pigmentation |  | 
2 | NC(=O)COc1ccc(C(=O)NCc2ccc(CN3CCCCC3)cc2)cc1 [Compound (II)] |  | effective to reduce pigmentation | −28.30% | −75.25%
